Laboratory results: PubChem BioAssay (NCI)
Where “and” joins values, the source holds several entries; their conditions need not be identical. Equal values may be shown once.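 Each compound was tested at five concentrations against cells in 96-well plates for 48 hours. GI50: concentration for 50% inhibition of growth. At the TGI there is no net growth.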

Tests used:
Assay in all cases: NCI tumour cell line growth inhibition, 48 h
HCT-116 colon = test system: HCT-116 colon
HCT-15 colon = test system: HCT-15 colon
HOP-62 NSCLC = test system: HOP-62 NSCLC
MALME-3M melanoma = test system: MALME-3M melanoma
MDA-MB-435 = test system: MDA-MB-435
MOLT-4 leukemia = test system: MOLT-4 leukemia
NCI-H226 lung = test system: NCI-H226 lung
NCI-H23 lung = test system: NCI-H23 lung
NCI-H460 lung = test system: NCI-H460 lung
OVCAR-3 ovarian = test system: OVCAR-3 ovarian
RXF 393 renal = test system: RXF 393 renal
SNB-19 CNS = test system: SNB-19 CNS
SW-620 colon = test system: SW-620 colon

SMILES | TGI (HCT-116 colon) | TGI (HCT-15 colon) | TGI (HOP-62 NSCLC) | TGI (MALME-3M melanoma) | TGI (MDA-MB-435) | TGI (MOLT-4 leukemia) | TGI (NCI-H226 lung) | TGI (NCI-H23 lung) | TGI (NCI-H460 lung) | TGI (OVCAR-3 ovarian) | TGI (RXF 393 renal) | TGI (SNB-19 CNS) | TGI (SW-620 colon) | GI50 (HOP-62 NSCLC) | GI50 (NCI-H460 lung) | GI50 (RXF 393 renal) | GI50 (NCI-H226 lung)
COC(=O)c1c(O)ccc2c1c1c(n2Cc2ccc(Cl)cc2Cl)C(=O)c2ccccc2C1=O | 13.1 µM | 18.5 µM | 23.5 µM | 34.2 µM | 20.6 µM | 7.17 µM | 24.8 µM | 24.8 µM | 13 µM | 27.2 µM | 19.7 µM | 30.6 µM | 32.4 µM | – | – | – | –
C[C@]12CC/C(=N\O)C=C1CC[C@@H]1[C@@H]2CC[C@]2(C)C(=N/O)/C(=C/c3ccc([N+](=O)[O-])cc3)C[C@@H]12 | 14.2 µM | > 100 µM | > 100 µM | 71 µM | 19 µM | 9.55 µM | > 100 µM | 75.2 µM | > 100 µM | 8.1 µM | > 100 µM | > 100 µM | > 100 µM | – | – | – | –
COC(=O)C1OC(O[C@H]2CC[C@]3(C)[C@H]4CC=C5[C@@H]6CC(C)(C)CC[C@]6(C(=O)OC6OCC(O)C(O)C6OC6OC(C)C(OC7OCC(O)C(OC8OCC(O)C(O)C8O)C7O)C(OC7OCC(O)C(O)C7O)C6O)CC[C@@]5(C)[C@]4(C)CC[C@H]3C2(C)C)C(O)C(OC2OCC(O)C(O)C2O)C1O (stereo partly specified) | > 100 µM and 23.3 µM | > 100 µM and 35.2 µM | 17.8 µM and 23.7 µM | 19.4 µM and 18.3 µM | 4.13 µM and 4.42 µM | 27.6 µM and 28.4 µM | 11 µM and 17.8 µM | > 36.7 µM and 16.2 µM | > 100 µM | > 100 µM and 45.9 µM | > 67 µM and 35.6 µM | > 100 µM and 20.1 µM | > 100 µM and 24 µM | 4.76 µM and 10.9 µM | > 100 µM and 33.1 µM | 6.36 µM and 13.7 µM | –
CCCCC(Sc1cc(Cl)c(C)cc1S(=O)(=O)Nc1n[nH]c(N)n1)C(=O)OC (stereo unspecified) | > 10 µM | > 10 µM | > 10 µM | > 10 µM | > 10 µM | > 10 µM | > 10 µM | > 10 µM | > 10 µM | > 10 µM | > 10 µM | > 10 µM | > 10 µM | – | – | – | –
CC(C)NC(=O)OCc1c(COC(=O)NC(C)C)c(-c2cc[n+](COC(=O)C(C)(C)C)cc2)n2c1CCC2 | > 100 µM | > 100 µM | > 100 µM | > 100 µM | > 100 µM | > 100 µM | > 100 µM | > 100 µM | > 100 µM | > 100 µM | > 100 µM | > 100 µM | > 100 µM | – | – | – | –
O=C(O)CCc1ccc2c(c1)C(=O)CC2 | > 100 µM | > 100 µM | > 100 µM | > 100 µM | > 100 µM | > 100 µM | > 100 µM | > 100 µM | > 100 µM | > 100 µM | > 100 µM | > 100 µM | > 100 µM | – | – | – | –
CC(NC(=O)C(N)CC(=O)O)NC(=O)C1CCC1 (stereo unspecified) | > 100 µM | > 100 µM | > 100 µM | > 100 µM | > 100 µM | > 100 µM | > 100 µM | > 100 µM | > 100 µM | > 100 µM | > 100 µM | > 100 µM | > 100 µM | – | – | – | –
CCCCCCCCCCCCCCCCOCC(Cl)COP(=O)(O)OP(=O)(O)OCC1OC(n2cc(C)c(=O)[nH]c2=O)CC1O (stereo unspecified) | > 100 µM | > 100 µM | > 100 µM | > 100 µM | > 100 µM | > 100 µM | 80.5 µM | > 100 µM | > 100 µM | > 100 µM | > 100 µM | > 100 µM | > 100 µM | – | – | – | –
NCCN1C(=O)CN=C(c2ccc(Cl)cc2)c2cc(Cl)ccc21 | 30.1 µM | 34.7 µM | 31.8 µM | 29.7 µM | 28.3 µM | 73.8 µM | 31 µM | 37.1 µM | 34.4 µM | 29.3 µM | 24.5 µM | 45.6 µM | 43 µM | – | – | – | –
COC(=O)/C=C1/CCC(C)(C(=O)NS(=O)(=O)c2ccc(C)cc2)C1(C)C (stereo unspecified) | > 100 µM | > 100 µM | > 100 µM | > 100 µM | > 100 µM | > 100 µM | > 100 µM | > 100 µM | > 100 µM | > 100 µM | > 100 µM | > 100 µM | > 100 µM | – | – | – | –
CC(=O)O[C@H]1/C(=C/c2ccncc2)C[C@H]2[C@@H]3CC=C4C[C@@H](N5CCCC5)CC[C@]4(C)[C@H]3CC[C@]12C | 15.3 µM | 24.7 µM | 30.4 µM | 28 µM | 25.8 µM | 30.3 µM | 38 µM | 30.7 µM | 24.8 µM | 45.9 µM | 20.4 µM | 31.9 µM | 31.9 µM | – | – | – | –
Cc1ccc(-c2cc(C(F)(F)F)nn2-c2ccc(S(N)(=O)=O)cc2)cc1 | > 58.2 µM | > 56.6 µM | > 100 µM | 46.6 µM | > 56 µM | 53.2 µM | > 100 µM | 37.7 µM | 37.4 µM | 32 µM | 36 µM | > 56.7 µM | > 56.3 µM | – | – | – | 28.2 µM
CCCCCCOc1ccc(C(=O)NO)cc1 | 21.5 µM | 16.1 µM | 38.4 µM | 34.4 µM | 38.5 µM | 18.7 µM | 32.6 µM | 23 µM | 20.8 µM | 28.6 µM | 30.1 µM | 54.8 µM | 35.8 µM | – | – | – | –
CN(NC(=O)c1cccs1)C1=NCCCCN1 | > 100 µM | > 100 µM | > 100 µM | > 100 µM | > 100 µM | > 100 µM | > 100 µM | > 100 µM | > 100 µM | > 100 µM | > 100 µM | > 100 µM | > 100 µM | – | – | – | –
